Laboratory results: patent publication US9145351B2, “Azole derivatives, methods for producing the same, intermediate thereof, agro-horticultural agents” (KUREHA CORPORATION, priority 2009, dated 2015)
Read-outs that look alike come from different tables or passages of the source.

Assays:
Type in all cases: cell-based
[1] = test system: Pseudocercoporella herpotrichoides; test: Plate medium fungicidal assay, wheat eye spot P.h (Experimental Example 5)
Outline: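 Compound in DMSO mixed into PDA agar for plates at 50 mg/L and 5 mg/L, inoculated with a 4 mm mycelial plug of Pseudocercosporella herpotrichoides. Colony diameter compared with untreated plates: % mycelial growth inhibition = 100(dc−dt)/dc, scored on a 5-grade scale.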

Sclerotinia sclerotiorum = test: Plate medium fungicidal assay, Sclerotinia rot S.s (Experimental Example 5); settings: for inhibition at 5 µg/mL / inhibition at 50 µg/mL: Sclerotinia sclerotiorum
Outline: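 A 4 mm mycelial plug was placed on PDA plates containing compound at 50 mg/L and 5 mg/L, added from DMSO solution. Colony diameters were compared with untreated plates, % mycelial growth inhibition was R=100(dc−dt)/dc, and scores fell into 5 grades.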

Giberella fujikuroi = test: Plate medium fungicidal assay, rice bakanae disease G.f (Experimental Example 5)
Outline: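 Gibberella fujikuroi mycelial plugs (4 mm) placed on PDA plates containing compound at 50 mg/L and 5 mg/L, added from DMSO solution. Colony diameter compared with untreated plates as % inhibition = 100(dc−dt)/dc, then scored in 5 grades.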

Pyricularia oryzae = test: microbe, parasite or virus in culture; settings: for inhibition at 5 µg/mL / inhibition at 50 µg/mL: Pyricularia oryzae
Phaeosphaeria nodorum = test: Plate medium fungicidal assay, wheat Septoria nodorum blotch P.n (Experimental Example 5); settings: for inhibition at 5 µg/mL / inhibition at 50 µg/mL: Parastagonospora nodorum
Outline: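 Compound in DMSO mixed into PDA plate medium at 50 mg/L and 5 mg/L; 4 mm mycelial plug of pre-cultured fungus inoculated onto plate. Colony diameter compared with untreated plate, % mycelial growth inhibition = 100(dc−dt)/dc, scored in 5 grades.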

Rhynchosporium secalis = test: Plate medium fungicidal assay, barley leaf blotch R.sec (Experimental Example 5); settings: for inhibition at 5 µg/mL / inhibition at 50 µg/mL: Rhynchosporium secalis
Outline: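 Compound in DMSO mixed into PDA plate medium at 50 mg/L and 5 mg/L; 4 mm mycelial plug of the fungus inoculated. Colony diameter compared with untreated plates gives % mycelial growth inhibition R=100(dc−dt)/dc, scored on a 5-grade scale.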

[2] = plate medium containing compound at 5 mg/L
[3] = plate medium containing compound at 50 mg/L
[4] = read-out: growth inhibition grade P.o
[5] = plate medium containing compound at 5 mg/L, read-out: Growth inhibition grade, P.h
[6] = plate medium containing compound at 50 mg/L, read-out: Growth inhibition grade, P.h
[7] = plate medium containing compound at 5 mg/L, read-out: Growth inhibition grade, S.s
[8] = plate medium containing compound at 50 mg/L, read-out: Growth inhibition grade, S.s
[9] = plate medium containing compound at 5 mg/L, read-out: Growth inhibition grade, G.f
[10] = plate medium containing compound at 50 mg/L, read-out: Growth inhibition grade, G.f
[11] = read-out: Growth inhibition grade, P.o
[12] = plate medium containing compound at 5 mg/L, read-out: Growth inhibition grade, P.n
[13] = plate medium containing compound at 50 mg/L, read-out: Growth inhibition grade, P.n
[14] = plate medium containing compound at 5 mg/L, read-out: Growth inhibition grade, R.sec
[15] = plate medium containing compound at 50 mg/L, read-out: Growth inhibition grade, R.sec

SMILES	inhibition at 5 µg/mL [1, 5]	inhibition at 50 µg/mL [1, 6]	inhibition at 5 µg/mL (Sclerotinia sclerotiorum; [7])	inhibition at 50 µg/mL (Sclerotinia sclerotiorum; [8])	inhibition at 5 µg/mL (Giberella fujikuroi; [9])	inhibition at 50 µg/mL (Giberella fujikuroi; [10])	inhibition at 5 µg/mL (Pyricularia oryzae; [11])	inhibition at 50 µg/mL (Pyricularia oryzae; [11])	inhibition at 5 µg/mL (Phaeosphaeria nodorum; [12])	inhibition at 50 µg/mL (Phaeosphaeria nodorum; [13])	inhibition at 5 µg/mL (Rhynchosporium secalis; [14])	inhibition at 50 µg/mL (Rhynchosporium secalis; [15])	also measured
Cc1ccc(C[C@@H]2CC[C@](C)(CCl)[C@@]2(O)Cn2cncn2)cc1 (relative stereo) [Compound I-80]	–	–	–	–	–	–	–	–	–	–	–	–	Growth inhibition grade, P.h [1, 2]: 5 (% Mycerial growth inhibition of 80% or higher); Growth inhibition grade, P.h [1, 3]: 5 (% Mycerial growth inhibition of 80% or higher); Growth inhibition grade, S.s (Sclerotinia sclerotiorum; [2]): 5 (% Mycerial growth inhibition of 80% or higher); Growth inhibition grade, S.s (Sclerotinia sclerotiorum; [3]): 5 (% Mycerial growth inhibition of 80% or higher); Growth inhibition grade, G.f (Giberella fujikuroi; [2]): 5 (% Mycerial growth inhibition of 80% or higher); Growth inhibition grade, G.f (Giberella fujikuroi; [3]): 5 (% Mycerial growth inhibition of 80% or higher); Growth inhibition grade, P.o (Pyricularia oryzae; [2]): 5 (% Mycerial growth inhibition of 80% or higher); Growth inhibition grade, P.o (Pyricularia oryzae; [3]): 5 (% Mycerial growth inhibition of 80% or higher); Growth inhibition grade, P.n (Phaeosphaeria nodorum; [2]): 5 (% Mycerial growth inhibition of 80% or higher); Growth inhibition grade, P.n (Phaeosphaeria nodorum; [3]): 5 (% Mycerial growth inhibition of 80% or higher); Growth inhibition grade, R.sec (Rhynchosporium secalis; [2]): 5 (% Mycerial growth inhibition of 80% or higher); Growth inhibition grade, R.sec (Rhynchosporium secalis; [3]): 5 (% Mycerial growth inhibition of 80% or higher)
O[C@]1(Cn2cncn2)[C@@H](Cc2ccc(Cl)cc2)CC[C@@H]1C(F)(F)F (racemic) [Compound I-365, (1RS,2SR,5RS)-5-(4-chlorobenzyl)-2-trifluoromethyl-1-(1H-1,2,4-triazol-1-ylmethyl)cyclopentanol]	–	–	–	–	–	–	–	–	–	–	–	–	inhibition at 5 µg/mL ([1]; plate medium, 5 mg/L, read-out: growth inhibition grade P.h): 20 to 40%; inhibition at 50 µg/mL ([1]; plate medium, 50 mg/L, read-out: growth inhibition grade P.h): > 80%; inhibition at 5 µg/mL (Sclerotinia sclerotiorum; plate medium, 5 mg/L, read-out: growth inhibition grade S.s): 20 to 40%; inhibition at 50 µg/mL (Sclerotinia sclerotiorum; plate medium, 50 mg/L, read-out: growth inhibition grade S.s): > 80%; inhibition at 5 µg/mL (Giberella fujikuroi; plate medium, 5 mg/L, read-out: growth inhibition grade G.f): < 20%; inhibition at 50 µg/mL (Giberella fujikuroi; plate medium, 50 mg/L, read-out: growth inhibition grade G.f): > 80%; inhibition at 5 µg/mL (Pyricularia oryzae; [4]): < 20%; inhibition at 50 µg/mL (Pyricularia oryzae; [4]): > 80%; inhibition at 5 µg/mL (Phaeosphaeria nodorum; plate medium, 5 mg/L, read-out: growth inhibition grade P.n): 40 to 60%; inhibition at 50 µg/mL (Phaeosphaeria nodorum; plate medium, 50 mg/L, read-out: growth inhibition grade P.n): > 80%; inhibition at 5 µg/mL (Rhynchosporium secalis; plate medium, 5 mg/L, read-out: growth inhibition grade R.sec): 20 to 40%; inhibition at 50 µg/mL (Rhynchosporium secalis; plate medium, 50 mg/L, read-out: growth inhibition grade R.sec): > 80%
C[C@]1(CBr)CC[C@@H](Cc2ccc(Cl)cc2)[C@]1(O)Cn1cncn1 (racemic) [Compound I-25, (1RS,2SR,5SR)-2-bromomethyl-5-(4-chlorobenzyl)-2-methyl-1-(1H-1,2,4-triazol-1-ylmethyl)cyclopentanol]	40 to 60%	> 80%	> 80%	> 80%	> 80%	> 80%	> 80%	> 80%	60 to 80%	> 80%	> 80%	> 80%	–
O[C@]1(Cn2cncn2)[C@H](Cc2ccc(Cl)cc2)CC[C@@H]1C(F)(F)F (racemic) [Compound I-65, (1RS,2SR,5SR)-5-(4-chlorobenzyl)-2-trifluoromethyl-1-(1H-1,2,4-triazol-1-ylmethyl)cyclopentanol]	40 to 60%	> 80%	40 to 60%	> 80%	60 to 80%	> 80%	40 to 60%	> 80%	60 to 80%	> 80%	40 to 60%	> 80%	–
